We go through 25 compounds from patent US20090233906A1, “IMIDAZOAZEPINONE COMPOUNDS” (priority 2006, published 2009).

Structures are written as SMILES.

The first assay deals with human T-bet. The assay can be described thus: HEKT-bet-luc assay (normalized). In kind it is cell-based. The settings on record: Homo sapiens, HEK293, 24 h, normalized HEKT-bet-luc IC50; engineered HEK cells, T-box responsive luciferase reporter, compound 24 hours; normalized to reference ER-819544; read-out: IC50. Here is the method: HEKT-bet-luc assay: This assay measures a T-bet dependent reporter (luciferase) activity in engineered HEK cells that express a human T-bet and a T-box responsive element driving luciferase reporter. HEKT-bet cells were plated at 2×10^4/well in 96-well plate and compound was added into cell culture for 24 hours. Luciferase activity was measured by adding 50 μl of Steady-Glo reagent (Promega) and samples were read in Victor V reader (PerkinElmer). The activity of compound was determined by comparing compound treated samples to non-compound treated vehicle controls. The IC50 values were calculated utilizing a maximum value corresponding to the amount of luciferase in the absence of a test compound and a minimum value corresponding to a test compound value obtained at maximum inhibition.
Determination of Normalized HEKT-bet IC50 values: Compounds were assayed in microtiter plates. Each plate included a reference compound which was ER-819544. The un-normalized IC50 value for a particular compound was divided by the IC50 value determined for the reference compound in the same microtiter plate to provide a relative potency value. The relative potency value was then multiplied by the established potency of the reference compound to provide the normalized HEKT-bet IC50 value. […] The IC50 values provided herein were obtained using this normalization method.
A general note: A reporter such as luciferase makes a cellular process visible.
What is called IC50 is the concentration that inhibits the measured activity by half. As for `CCN1C(=O)N2Cc3cc(OC)cc(OC)c3C(C)C=C2C12CCN(Cc1cc(C)cc(C)c1)CC2` (racemic) [compound 819597], the IC50 is 90 nM.

Consider `COCCN1C(=O)N2Cc3cc(OC)cc(OC)c3C(C)C=C2C12CCN(Cc1cc(OC)cc(OC)c1)CC2` (stereo not shown) [compound 819543], for which the IC50 was 15 nM.

As for `COCCN1C(=O)N2Cc3cc(OC)cc(OC)c3C(C)(C)C=C2C12CCN(Cc1cc(OC)cc(OC)c1)CC2` [compound 819544], the IC50 came to 35 nM.

As for `CCC1C=C2N(Cc3cc(OC)cc(OC)c31)C(=O)N(CCOC)C21CCN(Cc2cc(OC)cc(OC)c2)CC1` (stereo not shown) [compound 819549], the IC50 stood at 15 nM.

For the compound `CCN1C(=O)N2Cc3cc(OC)cc(OC)c3C(C)C=C2C12CCN(Cc1cccs1)CC2` (stereo not shown) [compound 819556], the IC50 amounted to 166 nM.

On to `CCc1ccc(CN2CCC3(CC2)C2=CC(C)c4c(cc(OC)cc4OC)CN2C(=O)N3CC)s1` (stereo not shown) [compound 819557], for which the IC50 came to 510 nM.

On to `CCN1C(=O)N2Cc3cc(OC)cc(OC)c3C(C)C=C2C12CCN(Cc1cscc1Br)CC2` (stereo not shown) [compound 819558], for which the IC50 turned out to be 740 nM.

As for `CCN1C(=O)N2Cc3cc(OC)cc(OC)c3C(C)C=C2C12CCN(Cc1cc(OC)cc(OC)c1)CC2` (stereo not shown) [compound 819582], the IC50 turned out to be 10 nM.

For `CCN1C(=O)N2Cc3cc(OC)cc(OC)c3C(C)(C)C=C2C12CCN(Cc1cc(OC)cc(OC)c1)CC2` [compound 819583], the IC50 stood at 112 nM.

Regarding `COc1cc(CN2CCC3(CC2)C2=CC(C)(C)c4c(cc(OC)cc4OC)CN2C(=O)N3Cc2cccc(-n3cccc3)c2)cc(OC)c1` [compound 819590], the IC50 was found to be 514 nM.

For `CCN1C(=O)N2Cc3cc(OC)cc(OC)c3C(C)C=C2C12CCN(Cc1cccc3ncccc13)CC2` (stereo not shown) [compound 819592], the IC50 is 86 nM.

For the compound `CCN1C(=O)N2Cc3cc(OC)cc(OC)c3C(C)C=C2C12CCN(Cc1cccc3cnccc13)CC2` (stereo not shown) [compound 819593], the IC50 was 140 nM.

In the case of `CCN1C(=O)N2Cc3cc(OC)cc(OC)c3C(C)C=C2C12CCN(Cc1cccc3cccnc13)CC2` (stereo not shown) [compound 819594], the IC50 is 60 nM.

As for `CCN1C(=O)N2Cc3cc(OC)cc(OC)c3C(C)C=C2C12CCN(Cc1cccc3nccnc13)CC2` (stereo not shown) [compound 819595], the IC50 was determined as 90 nM.

For `CCN1C(=O)N2Cc3cc(OC)cc(OC)c3C(C)C=C2C12CCN(Cc1cn(C)c3ccccc13)CC2` (stereo not shown) [compound 819596], the IC50 turned out to be 720 nM.

`CCN1C(=O)N2Cc3cc(OC)cc(OC)c3C(C)C=C2C12CCN(Cc1cc(Br)cc(Br)c1)CC2` (stereo not shown) [compound 819599]: the IC50 came out at 4710 nM.

With `CCN1C(=O)N2Cc3cc(OC)cc(OC)c3C(C)(C)C=C2C12CCN(Cc1ccnc3ccccc13)CC2` [compound 819601], the IC50 amounted to 260 nM.

In the case of `CCN1C(=O)N2Cc3cc(OC)cc(OC)c3C(C)(C)C=C2C12CCN(Cc1cccc3ncccc13)CC2` [compound 819602], the IC50 is 150 nM.

For the compound `CCN1C(=O)N2Cc3cc(OC)cc(OC)c3C(C)(C)C=C2C12CCN(Cc1cccc3cnccc13)CC2` [compound 819603], the IC50 worked out at 340 nM.

Turning to `CCN1C(=O)N2Cc3cc(OC)cc(OC)c3C(C)(C)C=C2C12CCN(Cc1cccc3cccnc13)CC2` [compound 819604], the IC50 worked out at 120 nM.

In the case of `CCN1C(=O)N2Cc3cc(OC)cc(OC)c3C(C)(C)C=C2C12CCN(Cc1cccc3nccnc13)CC2` [compound 819605], the IC50 was determined as 260 nM.

As to `CCN1C(=O)N2Cc3cc(OC)cc(OC)c3C(C)(C)C=C2C12CCN(Cc1cn(C)c3ccccc13)CC2` [compound 819606], the IC50 turned out to be 2870 nM.

As for `CCN1C(=O)N2Cc3cc(OC)cc(OC)c3C(C)(C)C=C2C12CCN(Cc1cc(C)cc(C)c1)CC2` [compound 819607], the IC50 turned out to be 500 nM.

As for `COCCN1C(=O)N2Cc3cc(OC)ccc3C(C)(C)C=C2C12CCN(Cc1ccccc1)CC2` [compound 819613], the IC50 amounted to 1310 nM.

The same assay, now with this note: Homo sapiens, HEKT-bet-luc assay; value used for normalization; read-out: established potency of the reference compound (IC50).
Regarding `COCCN1C(=O)N2Cc3cc(OC)cc(OC)c3C(C)(C)C=C2C12CCN(Cc1cc(OC)cc(OC)c1)CC2` [ER-819544], the IC50 was determined as 35 nM.
